Measured values reported in US12617803B2, “Condensed isoxazoline derivatives and their use as herbicides” (BASF SE, priority 2020, dated 2026).

Assays:
Assay type in all cases: in vivo
AVEFA (Avena fatua) = test: greenhouse post-emergence herbicidal test; conditions: scale from 0 to 100, read-out: herbicidal activity against AVEFA; for pest or weed control at 250 g/ha: 0.250 kg/ha; for pest or weed control at 125 g/ha: 0.125 kg/ha; for pest or weed control at 630 g/ha: 0.63 kg/ha
Text: (§1) The seeds of the test plants were sown separately for each species. For the pre-emergence treatment, the active ingredients, which had been suspended or emulsified in water, were applied directly after sowing by means of finely distributing nozzles. The containers were irrigated gently to promote germination and growth and subsequently covered with transparent plastic hoods until the test plants had rooted. This cover caused uniform germination of the test plants, unless this had been impaired by the active ingredients. For the post-emergence treatment, the test plants were first grown to a height of 3 to 15 cm, depending on the plant habit, and only then treated with the active ingredients which had been suspended or emulsified in water. For this purpose, the test plants were either sown directly and grown in the same containers, or they were first grown separately as seedlings and transplanted into the test containers a few days prior to treatment. Depending on the species, the test plants were kept at 10-25° C. or 20-35° C., respectively. The test period extended over 2 to 4 weeks. During this time, the test plants were tended, and their response to the individual treatments was evaluated. Evaluation was carried out using a scale from 0 to 100. 100 means no emergence of the test plants, or complete destruction of at least the aerial moieties, and 0 means no damage, or normal course of growth. A good herbicidal activity is given at values of 70 to 90 and a very good herbicidal activity is given at values of 90 to 100. The test plants used in the greenhouse experiments were of the following species: [table]

[1] = test system: APESV (Apera spica-venti); test: greenhouse pre-emergence herbicidal test; conditions: scale from 0 to 100, read-out: herbicidal activity against APESV; for pest or weed control at 250 g/ha: pre-emergence, 0,250 kg/ha; for pest or weed control at 125 g/ha: pre-emergence, 0.125 kg/ha
Text: as §1

[2] = test system: AMARE (Amaranthus retroflexus); test: greenhouse post-emergence herbicidal test; conditions: scale from 0 to 100
Text: as §1

[3] = test system: ALOMY (Alopercurus myosuroides); test: greenhouse post-emergence herbicidal test; conditions: 0.125 kg/ha, scale from 0 to 100
Text: as §1

[4] = test system: ECHCG (Echinocloa crus-galli); test: greenhouse pre-emergence herbicidal test; conditions: pre-emergence, 0,250 kg/ha, scale from 0 to 100
Text: as §1

SETVI (Setaria viridis) = test: greenhouse post-emergence herbicidal test; conditions: scale from 0 to 100
Text: as §1

[5] = test system: ABUTH (Abutilon theophrasti); test: greenhouse post-emergence herbicidal test; conditions: 0.500 kg/ha, scale from 0 to 100
Text: as §1

SETFA (Setaria faberi) = test: greenhouse pre-emergence herbicidal test; conditions: scale from 0 to 100
Text: as §1

[6] = test system: POLCO (Fallopia convolvulus); test: greenhouse post-emergence herbicidal test; conditions: 0.63 kg/ha, scale from 0 to 100
Text: as §1

[7] = test system: AMARE (Amaranthus retroflexus); test: greenhouse pre-emergence herbicidal test; conditions: 0.125 kg/ha, scale from 0 to 100
Text: as §1

[8] = test system: ECHCG (Echinocloa crus-galli); test: greenhouse post-emergence herbicidal test; conditions: 0.63 kg/ha, scale from 0 to 100
Text: as §1

Work on `COC(=O)[C@@H]1C=C[C@H](NC(=O)C23NCCC2C(c2cc(Cl)cc(Cl)c2)=NO3)C1` (stereo partly drawn) [I10, methyl (1S,4R)-4-[3-(3,5-dichlorophenyl)-3aH,4H,5H,6H-pyrrolo[3,2-d][1,2]oxazole-6a-amido]cyclopent-2-ene-1-carboxylate] yielded a pest or weed control at 250 g/ha (AVEFA (Avena fatua)) of 90 to 100% and a pest or weed control at 250 g/ha [1] of 70 to 90%.

With `COC(=O)CC[C@H](C)NC(=O)C12CCCC1C(c1cc(Cl)cc(Cl)c1)=NO2` (some centres unmarked) [I2] the “herbicidal activity against AMARE” value ([2]; 0.125 kg/ha) was “good (A good herbicidal activity is given at values of 70 to 90)”, the “herbicidal activity against ALOMY” value [3] was “very good (a very good herbicidal activity is given at values of 90 to 100)” and the pest or weed control at 125 g/ha (AVEFA (Avena fatua)) was 90 to 100%. It also gave a pest or weed control at 125 g/ha [1] of 70 to 90%.

With `COC(=O)[C@@H]1C=C[C@H](NC(=O)C23ON=C(c4cc(Cl)cc(Cl)c4)C2CCS3)C1` (stereo partly drawn) [I13, methyl (1S,4R)-4-[[3-(3,5-dichlorophenyl)-4,5-dihydro-3aH-thieno[3,2-d]isoxazole-6a-carbonyl]amino]cyclopent-2-ene-1-carboxylate] the pest or weed control at 250 g/ha (AVEFA (Avena fatua)) was 90 to 100%, the “herbicidal activity against ECHCG” value [4] was “very good (a very good herbicidal activity is given at values of 90 to 100)” and the pest or weed control at 250 g/ha [1] was 90 to 100%.

For `COC(=O)CC[C@H](C)NC(=O)C12ON=C(c3cc(F)cc(F)c3)C1CCS2` (some centres unmarked) [I15], the pest or weed control at 500 g/ha (AVEFA (Avena fatua); 0.500 kg/ha) was 90 to 100%, the “herbicidal activity against SETVI” value (SETVI (Setaria viridis); 0.500 kg/ha) was “very good (a very good herbicidal activity is given at values of 90 to 100)” and the “herbicidal activity against ABUTH” value [5] was “good (A good herbicidal activity is given at values of 70 to 90)”. It also gave a pest or weed control at 500 g/ha ([1]; pre-emergence, 0,500 kg/ha) of 70 to 90%.

`COC(=O)C1C=C[C@H](NC(=O)C23CC2C(c2cc(Cl)cc(Cl)c2)=NO3)C1` (some centres unmarked) [I17] was tested, and the pest or weed control at 250 g/ha (AVEFA (Avena fatua)) was 90 to 100% and the pest or weed control at 250 g/ha [1] was 90 to 100%.

For `COC(=O)[C@@H]1C=C[C@H](NC(=O)C23C=CCC2C(c2cc(F)cc(F)c2)=NO3)C1` (stereo partly drawn) [I19, methyl (1S,4R)-4-[[3-(3,5-difluorophenyl)-3a,4-dihydrocyclopenta[d]isoxazole-6a-carbonyl]amino]cyclopent-2-ene-1-carboxylate], the pest or weed control at 250 g/ha (AVEFA (Avena fatua)) was 90 to 100%, the “herbicidal activity against SETFA” value (SETFA (Setaria faberi); pre-emergence, 0,250 kg/ha) was “very good (a very good herbicidal activity is given at values of 90 to 100)” and the pest or weed control at 250 g/ha [1] was 90 to 100%.

`COC(=O)CC[C@H](C)NC(=O)C12CC1C(c1cc(F)cc(F)c1)=NO2` (stereo partly drawn) [I16, methyl (4S)-4-[[4-(3,5-difluorophenyl)-2-oxa-3-azabicyclo[3.1.0]hex-3-ene-1-carbonyl]amino]pentanoate] was tested, and the pest or weed control at 250 g/ha (AVEFA (Avena fatua)) was 90 to 100% and the pest or weed control at 250 g/ha [1] was 70 to 90%.

In the case of `COC(=O)[C@H]1CC[C@H](NC(=O)C23CCC2C(c2cc(Cl)cc(Cl)c2)=NO3)C1` (some centres unmarked) [I21], the “herbicidal activity against AMARE” value ([2]; 0.63 kg/ha) is reported as “very good (a very good herbicidal activity is given at values of 90 to 100)”, the pest or weed control at 630 g/ha (AVEFA (Avena fatua)) is reported as 70 to 90% and the “herbicidal activity against POLCO” value [6] is reported as “good (A good herbicidal activity is given at values of 70 to 90)”.

With `COC(=O)[C@@H]1C=C[C@H](NC(=O)C23CCCC2C(c2cc(Cl)cc(Cl)c2)=NO3)C1` (some centres unmarked) [I1] the “herbicidal activity against AMARE” value ([2]; 0.125 kg/ha) was “very good (a very good herbicidal activity is given at values of 90 to 100)”, the “herbicidal activity against ALOMY” value [3] was “good (A good herbicidal activity is given at values of 70 to 90)” and the pest or weed control at 125 g/ha (AVEFA (Avena fatua)) was 70 to 90%. The “herbicidal activity against AMARE” value [7] was “very good (a very good herbicidal activity is given at values of 90 to 100)” and the pest or weed control at 125 g/ha [1] was 90 to 100%.

In the case of `COC(=O)[C@H]1C[C@@H](NC(=O)C23CCC2C(c2cc(Cl)cc(Cl)c2)=NO3)CO1` (some centres unmarked) [I20], the “herbicidal activity against ECHCG” value [8] is reported as “good (A good herbicidal activity is given at values of 70 to 90)”, the pest or weed control at 630 g/ha (AVEFA (Avena fatua)) is reported as 90 to 100% and the “herbicidal activity against SETVI” value (SETVI (Setaria viridis); 0.63 kg/ha) is reported as “very good (a very good herbicidal activity is given at values of 90 to 100)”.

For `COC(=O)[C@@H]1C=C[C@H](NC(=O)C23ON=C(c4cc(Cl)cc(Cl)c4)C2CCC3(C)C)C1` (some centres unmarked) [I12], the “herbicidal activity against SEFTA” value (SETFA (Setaria faberi); pre-emergence, 0.125 kg/ha) was “good (A good herbicidal activity is given at values of 70 to 90)”.
